Data taken from patent US9200008B2 (ASKA PHARMACEUTICAL CO., LTD., priority 2010, dated 2015).

These molecules were tested on Human prostate cancer cell lines (PC-3 cells) (assay: Measurement of cell death-inducing activity (Test Example 1)). Settings: PC-3, 48 h, 48 hours after addition, tested at 10, 1, 0.1, 0.025 and 0.00625 μmol/L, qualitative evaluation of 10 fields, read-out: Concentration showing the cell death-inducing activity (cell death-inducing rate not less than 40%).
Assay type: cell-based
Description: The cell death-inducing activity of the compound represented by the formula (1) or the salt thereof was measured as follows.
Human prostate cancer cell lines (PC-3 cells) were seeded to 6-well plates at 1×10^5 cells/2 mL/well, and cultured in the presence of 5% CO2 at 37° C. for 48 hours. Thereafter, each compound was added thereto so as to provide 10, 1, 0.1, 0.025 and 0.00625 μmol/L. As a control, DMSO was added. After the addition, the cells were continuously cultured for 48 hours. […] When the cell death-inducing rate was not less than 40%, the compound was judged to have the cell death-inducing activity.
`CCn1c(C)nc2cc(COC(=O)Nc3sc(-c4ccc(C)cc4C)nc3C)ccc21` [Example 9-88] showed a minimal effective concentration of 0.1 µM.
`CCc1ccccc1-c1nc(C)c(NC(=O)OCc2ccc3c(c2)nc2n3CCOC2)s1` [Example 9-90] showed a minimal effective concentration of 0.1 µM.
`COc1ccccc1-c1nc(C)c(NC(=O)OCc2ccc3c(c2)nc2n3CCOC2)s1` [Example 9-91] was tested, and the minimal effective concentration was 0.025 µM.
For `COc1cc(F)ccc1-c1nc(C)c(NC(=O)OCc2ccc3c(c2)nc2n3CCOC2)s1` [Example 9-92], the minimal effective concentration was 0.00625 µM.
In the case of `COc1cc(Cl)ccc1-c1nc(C)c(NC(=O)OCc2ccc3c(c2)nc2n3CCOC2)s1` [Example 9-93], the minimal effective concentration is reported as 0.00625 µM.
In the case of `COc1ccc(-c2nc(C)c(NC(=O)OCc3ccc4c(c3)nc3n4CCOC3)s2)c(OC)c1` [Example 9-95], the minimal effective concentration is reported as 0.025 µM.
`Cc1ccc(-c2nc(C)c(NC(=O)OCc3ccc4c(c3)nc3n4CCOC3)s2)c(C)c1` [Example 9-96] showed a minimal effective concentration of 0.00625 µM.
`Cc1cc(F)ccc1-c1nc(C)c(NC(=O)OCc2ccc3c(c2)nc2n3CCOC2)s1` [Example 9-97] was tested, and the minimal effective concentration was 0.025 µM.
Work on `Cc1cc(Cl)ccc1-c1nc(C)c(NC(=O)OCc2ccc3c(c2)nc2n3CCOC2)s1` [Example 9-98] yielded a minimal effective concentration of 0.00625 µM.
`Cc1ccccc1-c1nc(C)c(NC(=O)OCc2ccc3c(c2)nc2n3CCC2)s1` [Example 9-99] gave a minimal effective concentration of 1 µM.
Work on `CCc1ccccc1-c1nc(C)c(NC(=O)OCc2ccc3c(c2)nc2n3CCC2)s1` [Example 9-100] yielded a minimal effective concentration of 0.1 µM.
With `COc1ccccc1-c1nc(C)c(NC(=O)OCc2ccc3c(c2)nc2n3CCC2)s1` [Example 9-101] the minimal effective concentration was 0.1 µM.
In the case of `CCc1cc(F)ccc1-c1nc(C)c(NC(=O)OCc2ccc3c(c2)nc2n3CCC2)s1` [Example 9-102], the minimal effective concentration is reported as 0.025 µM.
For `COc1cc(Cl)ccc1-c1nc(C)c(NC(=O)OCc2ccc3c(c2)nc2n3CCC2)s1` [Example 9-103], the minimal effective concentration was 0.00625 µM.
For `COc1cc(C)ccc1-c1nc(C)c(NC(=O)OCc2ccc3c(c2)nc2n3CCC2)s1` [Example 9-104], the minimal effective concentration was 0.1 µM.
`Cc1cc(F)ccc1-c1nc(C)c(NC(=O)OCc2ccc3c(c2)nc2n3CCC2)s1` [Example 9-106] was tested, and the minimal effective concentration was 0.025 µM.
`Cc1cc(Cl)ccc1-c1nc(C)c(NC(=O)OCc2ccc3c(c2)nc2n3CCC2)s1` [Example 9-107] was tested, and the minimal effective concentration was 0.025 µM.
With `Cc1ccc(-c2nc(C)c(NC(=O)OCc3ccc4c(c3)nc3n4CCC3)s2)c(C)c1` [Example 9-108] the minimal effective concentration was 0.025 µM.
Molecule `CCc1ccccc1-c1nc(C)c(NC(=O)OCc2ccc3c(c2)nc2n3CCCC2)s1` [Example 9-109] has a minimal effective concentration of 1 µM.
`COc1ccccc1-c1nc(C)c(NC(=O)OCc2ccc3c(c2)nc2n3CCCC2)s1` [Example 9-110] was tested, and the minimal effective concentration was 1 µM.
Work on `COc1cc(F)ccc1-c1nc(C)c(NC(=O)OCc2ccc3c(c2)nc2n3CCCC2)s1` [Example 9-111] yielded a minimal effective concentration of 0.1 µM.
In the case of `COc1cc(C)ccc1-c1nc(C)c(NC(=O)OCc2ccc3c(c2)nc2n3CCCC2)s1` [Example 9-112], the minimal effective concentration is reported as 0.1 µM.
With `Cc1ccc(-c2nc(C)c(NC(=O)OCc3ccc4c(c3)nc3n4CCCC3)s2)c(C)c1` [Example 9-113] the minimal effective concentration was 0.025 µM.
`Cc1cc(Cl)ccc1-c1nc(C)c(NC(=O)OCc2ccc3c(c2)nc2n3CCCC2)s1` [Example 9-115] gave a minimal effective concentration of 0.1 µM.
In the case of `COc1cc(F)ccc1-c1nc(C)c(NC(=O)OCc2ccc3c(c2)nc2n3C(C)CCC2)s1` (centres unmarked) [Example 9-116], the minimal effective concentration is reported as 10 µM.
With `Cc1ccc(-c2nc(C)c(NC(=O)OCc3ccc4c(c3)nc3n4C(C)CCC3)s2)c(C)c1` (centres unmarked) [Example 9-118] the minimal effective concentration was 10 µM.
With `Cc1cc(Cl)ccc1-c1nc(C)c(NC(=O)OCc2ccc3c(c2)nc2n3C(C)CCC2)s1` (centres unmarked) [Example 9-119] the minimal effective concentration was 10 µM.
For `COc1cc(Cl)ccc1-c1nc(C)c(NC(=O)OCc2ccc3c(c2)nc2n3CCC(C)C2)s1` (centres unmarked) [Example 9-120], the minimal effective concentration was 0.1 µM.
In the case of `COc1cc(C)ccc1-c1nc(C)c(NC(=O)OCc2ccc3c(c2)nc2n3CCC(C)C2)s1` (centres unmarked) [Example 9-121], the minimal effective concentration is reported as 1 µM.
`Cc1ccc(-c2nc(C)c(NC(=O)OCc3ccc4c(c3)nc3n4CCC(C)C3)s2)c(C)c1` (centres unmarked) [Example 9-122] showed a minimal effective concentration of 1 µM.
`Cc1ccc(-c2nc(C)c(NC(=O)OCc3ccc4c(c3)nc3n4CCCCC3)s2)c(C)c1` [Example 9-124] showed a minimal effective concentration of 10 µM.
`CCc1ccccc1-c1nc(C)c(NC(=O)OCc2ccc3c(cnn3C)c2)s1` [Example 9-125] showed a minimal effective concentration of 1 µM.
`COc1ccccc1-c1nc(C)c(NC(=O)OCc2ccc3c(cnn3C)c2)s1` [Example 9-126] showed a minimal effective concentration of 0.1 µM.
In the case of `COc1cc(F)ccc1-c1nc(C)c(NC(=O)OCc2ccc3c(cnn3C)c2)s1` [Example 9-127], the minimal effective concentration is reported as 0.1 µM.
`COc1cc(Cl)ccc1-c1nc(C)c(NC(=O)OCc2ccc3c(cnn3C)c2)s1` [Example 9-128] was tested, and the minimal effective concentration was 0.00625 µM.
`COc1cc(C)ccc1-c1nc(C)c(NC(=O)OCc2ccc3c(cnn3C)c2)s1` [Example 9-129] gave a minimal effective concentration of 0.00625 µM.
For `Cc1ccc(-c2nc(C)c(NC(=O)OCc3ccc4c(cnn4C)c3)s2)c(C)c1` [Example 9-130], the minimal effective concentration was 0.025 µM.
`Cc1nc(-c2ccc(F)cc2Cl)sc1NC(=O)OCc1ccc2c(cnn2C)c1` [Example 9-131] gave a minimal effective concentration of 0.1 µM.
Work on `CCc1ccccc1-c1nc(C)c(NC(=O)OCc2ccc3c(cnn3CC)c2)s1` [Example 9-133] yielded a minimal effective concentration of 0.1 µM.
Work on `CCn1ncc2cc(COC(=O)Nc3sc(-c4ccccc4OC)nc3C)ccc21` [Example 9-134] yielded a minimal effective concentration of 0.025 µM.
`CCn1ncc2cc(COC(=O)Nc3sc(-c4ccc(F)cc4OC)nc3C)ccc21` [Example 9-135] was tested, and the minimal effective concentration was 0.025 µM.
`CCn1ncc2cc(COC(=O)Nc3sc(-c4ccc(Cl)cc4OC)nc3C)ccc21` [Example 9-136] was tested, and the minimal effective concentration was 0.00625 µM.
`CCn1ncc2cc(COC(=O)Nc3sc(-c4ccc(C)cc4OC)nc3C)ccc21` [Example 9-137] gave a minimal effective concentration of 0.00625 µM.
For `CCn1ncc2cc(COC(=O)Nc3sc(-c4ccc(OC)cc4OC)nc3C)ccc21` [Example 9-138], the minimal effective concentration was 0.025 µM.
`CCn1ncc2cc(COC(=O)Nc3sc(-c4ccc(C)cc4C)nc3C)ccc21` [Example 9-139] gave a minimal effective concentration of 0.025 µM.
With `CCn1ncc2cc(COC(=O)Nc3sc(-c4ccc(F)cc4C)nc3C)ccc21` [Example 9-140] the minimal effective concentration was 0.025 µM.
In the case of `CCn1ncc2cc(COC(=O)Nc3sc(-c4ccc(Cl)cc4C)nc3C)ccc21` [Example 9-141], the minimal effective concentration is reported as 0.025 µM.
`CCc1ccccc1-c1nc(C)c(NC(=O)OCc2ccc3nn(C)cc3c2)s1` [Example 9-142] gave a minimal effective concentration of 0.1 µM.
`COc1cc(F)ccc1-c1nc(C)c(NC(=O)OCc2ccc3nn(C)cc3c2)s1` [Example 9-143] showed a minimal effective concentration of 0.025 µM.
Molecule `COc1cc(Cl)ccc1-c1nc(C)c(NC(=O)OCc2ccc3nn(C)cc3c2)s1` [Example 9-144] has a minimal effective concentration of 0.025 µM.
`COc1cc(C)ccc1-c1nc(C)c(NC(=O)OCc2ccc3nn(C)cc3c2)s1` [Example 9-145] gave a minimal effective concentration of 0.025 µM.
With `COc1ccc(-c2nc(C)c(NC(=O)OCc3ccc4nn(C)cc4c3)s2)c(OC)c1` [Example 9-146] the minimal effective concentration was 0.1 µM.
For `Cc1ccc(-c2nc(C)c(NC(=O)OCc3ccc4nn(C)cc4c3)s2)c(C)c1` [Example 9-147], the minimal effective concentration was 0.025 µM.
